Assay results from patent US7138361B2, “Herbicidal heterocycles” (E. I. du Pont de Nemours and Company, priority 2000, dated 2006).

Tests used:
Assay type in all cases: in vivo
[1] = test system: Nightshade; assay: Test C preemergence; conditions: Rate 250 g/ha, visual evaluation after 12 to 14 days
[2] = test system: Sunflower; assay: Test C preemergence; conditions: Rate 125 g/ha, scale 0 to 100, 0 no effect, 100 complete control
[3] = test system: giant foxtail (Setaria faberii); assay: Test C preemergence
Text: (§1) Seeds of plant species selected from bermudagrass (Cynodon dactylon), Surinam grass (Brachiaria decumbens), cocklebur (Xanthium strumarium), corn (Zea mays), crabgrass (Digitaria sanguinalis), woolly cupgrass (Eriochloa villosa), giant foxtail (Setaria faberii), goosegrass (Eleusine indica), johnsongrass (Sorghum halepense), kochia (Kochia scoparia), lambsquarters (Chenopodium album), morningglory (Ipomoea hederacea), yellow nutsedge (Cyperus esculentus), pigweed (Amaranthus retroflexus), common ragweed (Ambrosia elatior), soybean (Glycine max) and velvetleaf (Abutilon theophrasti) were planted and treated preemergence with test chemicals formulated in a non-phytotoxic solvent mixture which included a surfactant.
(§2) At the same time, plants selected from these crop and weed species and also winter barley (Hordeum vulgare), blackgrass (Alopecurus myosuroides), canary grass (Phalaris minor), chickweed (Stellaria media), downy brome (Bromus tectorum), green foxtail (Setaria viridis), Italian ryegrass (Lolium multiflorum), wheat (Triticum aestivum), wild oat (Avena fatua) and windgrass (Apera spica-venti) were treated with postemergence applications of some of the test chemicals formulated in the same manner. Plants ranged in height from 2 to 18 cm (1- to 4-leaf stage) for postemergence treatments. Plant species in the flooded paddy test consisted of rice (Oryza saliva), smallflower flatsedge (Cyperus difformis), duck salad (Heteranthera limosa) and barnyardgrass (Echinochloa crus-galli) grown to the 2-leaf stage for testing. Treated plants and controls were maintained in a greenhouse for 12 to 14 days, after which time all species were compared to controls and visually evaluated. Plant response ratings, summarized in Table C, are based on a scale of 0 to 100 where 0 is no effect and 100 is complete control. A dash (-) response means no test result.

[4] = test system: soybean (Glycine max); assay: Test C preemergence
Text: as §1, §2

[5] = test system: cocklebur (Xanthium strumarium); assay: Test C preemergence
Text: as §1, §2

[6] = test system: Surinam grass (Brachiaria decumbens); assay: Test C preemergence
Text: as §1, §2

[7] = test system: kochia (Kochia scoparia); assay: Test C preemergence
Text: as §1, §2

[8] = test system: bermudagrass (Cynodon dactylon); assay: Test C preemergence
Text: as §1, §2

[9] = test system: crabgrass (Digitaria sanguinalis); assay: Test C preemergence
Text: as §1, §2

[10] = test system: pigweed (Amaranthus retroflexus); assay: Test C preemergence
Text: as §1, §2

[11] = test system: woolly cupgrass (Eriochloa villosa); assay: Test C preemergence
Text: as §1, §2

[12] = test system: giant foxtail (Setaria faberii); assay: Test B preemergence; conditions: scale 0 to 100, 0 no effect, 100 complete control
How it was run: (§3)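 Greenhouse test: chemicals are formulated in a surfactant-containing non-phytotoxic solvent and applied either preemergence to planted seeds or postemergence to plants 2 to 18 cm tall. Response is rated visually versus controls after 13 to 15 days, 0 meaning no effect and 100 complete control.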

[13] = test system: corn (Zea mays); assay: Test B preemergence; conditions: scale 0 to 100, 0 no effect, 100 complete control
How it was run: as §3

[14] = test system: velvetleaf (Abutilon theophrasti); assay: Test B preemergence; conditions: scale 0 to 100, 0 no effect, 100 complete control
How it was run: as §3

[15] = test system: cocklebur (Xanthium strumarium); assay: Test B preemergence; conditions: scale 0 to 100, 0 no effect, 100 complete control
How it was run: as §3

[16] = test system: Surinam grass (Brachiaria decumbens); assay: Test B preemergence; conditions: scale 0 to 100, 0 no effect, 100 complete control
How it was run: as §3

[17] = test system: lambsquarters (Chenopodium album); assay: Test B preemergence; conditions: scale 0 to 100, 0 no effect, 100 complete control
How it was run: as §3

[18] = test system: crabgrass (Digitaria sanguinalis); assay: Test B preemergence; conditions: scale 0 to 100, 0 no effect, 100 complete control
How it was run: as §3

[19] = test system: rice (Oryza saliva); assay: Test B preemergence; conditions: scale 0 to 100, 0 no effect, 100 complete control
How it was run: as §3

[20] = test system: barnyardgrass (Echinochloa crus-galli); assay: Test B preemergence; conditions: scale 0 to 100, 0 no effect, 100 complete control
How it was run: as §3

[21] = test system: morning glory (Ipomoea hederacea); assay: Test B preemergence; conditions: scale 0 to 100, 0 no effect, 100 complete control
How it was run: as §3

[22] = test system: pigweed (Amaranthus retroflexus); assay: Test B preemergence; conditions: scale 0 to 100, 0 no effect, 100 complete control
How it was run: as §3

[23] = Preemergence, Rate 500 g/ha, scale 0 to 100
[24] = Rate 62 g/ha, scale 0 to 100, 0 no effect, 100 complete control
[25] = preemergence, Rate 31 g/ha, scale 0 to 100
[26] = preemergence, Rate 250 g/ha, visual evaluation after 12 to 14 days
[27] = preemergence, Rate 125 g/ha, scale 0 to 100, 0 no effect, 100 complete control

CCC(CC)c1ccn(C2SCN(c3cccc(C(F)(F)F)c3)C2=O)n1 (stereo not drawn) [Compound 25]
90: Plant response rating (0 to 100), Nightshade [1] | Plant response rating, Foxtail, Giant [3, 23] | Plant response rating, Foxtail, Giant [3, 24] | Plant response rating, Bermudagrass [8, 25] | Plant response rating, Pigweed [10, 23] | Plant response rating (0 to 100), Pigweed [10, 26] | Plant response rating, Morningglory ([21]; Preemergence, Rate 500 g/ha)
100: Plant response rating (0 to 100), Foxtail, Giant [3, 26] | Plant response rating (0 to 100), Cocklebur [5, 26] | Plant response rating, Kochia [7, 23] | Plant response rating (0 to 100), Kochia [7, 26] | Plant response rating, Kochia [7, 27] | Plant response rating, Bermudagrass [8, 23] | Plant response rating, Bermudagrass [8, 24] | Plant response rating (0 to 100 where 0 is no effect and 100 is complete control), Bermudagrass [8, 26] | Plant response rating, Bermudagrass [8, 27] | Plant response rating, Crabgrass [9, 23] | Plant response rating, Crabgrass [9, 24] | Plant response rating, Crabgrass [9, 25] | Plant response rating (0 to 100), Crabgrass [9, 26] | Plant response rating, Crabgrass [9, 27] | Plant response rating, Pigweed [10, 25] | Plant response rating, Pigweed [10, 27] | Plant response rating, Cupgrass, Woolly [11, 23] | Plant response rating (0 to 100), Cupgrass, Woolly [11, 26] | Plant response rating, Cupgrass, Woolly [11, 27] | Plant response rating, Foxtail, Giant ([12]; Preemergence, Rate 500 g/ha) | Plant response rating, Foxtail, Giant ([12]; preemergence, Rate 125 g/ha) | Plant response rating, Lambsquarters ([17]; Preemergence, Rate 500 g/ha) | Plant response rating, Lambsquarters ([17]; preemergence, Rate 125 g/ha) | Plant response rating, Crabgrass ([18]; Preemergence, Rate 500 g/ha) | Plant response rating, Crabgrass ([18]; preemergence, Rate 125 g/ha) | Plant response rating, Barnyardgrass ([20]; Preemergence, Rate 500 g/ha) | Plant response rating, Barnyardgrass ([20]; preemergence, Rate 125 g/ha) | Plant response rating, Pigweed ([22]; Preemergence, Rate 500 g/ha) | Plant response rating, Pigweed ([22]; preemergence, Rate 125 g/ha)
0: Plant response rating, Soybean [4, 24] | Plant response rating, Cocklebur [5, 24] | Plant response rating, Cocklebur [5, 25] | Plant response rating, Cocklebur [5, 27] | Plant response rating, Corn ([13]; Preemergence, Rate 500 g/ha) | Plant response rating, Corn ([13]; preemergence, Rate 125 g/ha) | Plant response rating, Velvetleaf ([14]; Preemergence, Rate 500 g/ha) | Plant response rating, Velvetleaf ([14]; preemergence, Rate 125 g/ha) | Plant response rating, Cocklebur ([15]; Preemergence, Rate 500 g/ha) | Plant response rating, Cocklebur ([15]; preemergence, Rate 125 g/ha) | Plant response rating, Rice ([19]; Preemergence, Rate 500 g/ha) | Plant response rating, Rice ([19]; preemergence, Rate 125 g/ha) | Plant response rating, Morningglory ([21]; preemergence, Rate 125 g/ha)
30: Plant response rating, Soybean [4, 27]
50: Plant response rating (0 to 100), Soybean [4, 26] | Plant response rating, Kochia [7, 24]
80: Plant response rating, Surinam grass [6, 23] | Plant response rating (0 to 100), Surinam grass [6, 26] | Plant response rating, Surinam grass [6, 27] | Plant response rating, Cupgrass, Woolly [11, 24] | Plant response rating, Surinam grass ([16]; Preemergence, Rate 500 g/ha) | Plant response rating, Surinam grass ([16]; preemergence, Rate 125 g/ha)
40: Plant response rating, Sunflower [2] | Plant response rating, Surinam grass [6, 24]
70: Plant response rating, Foxtail, Giant [3, 27] | Plant response rating, Cocklebur [5, 23]
20: Plant response rating, Foxtail, Giant [3, 25] | Plant response rating, Soybean [4, 25] | Plant response rating, Surinam grass [6, 25]
60: Plant response rating, Soybean [4, 23] | Plant response rating, Kochia [7, 25] | Plant response rating, Pigweed [10, 24] | Plant response rating, Cupgrass, Woolly [11, 25]
